Assay results: US4162325A, “N-substituted lactams” (UCB, Societe Anonyme, priority 1976, dated 1979)
“And” between values parts separate entries of the source, which are not always exact repeats. Identical values can stand only once. Like-named read-outs stand apart in the source and are kept apart here.

How the values were obtained:
rats = experiment: active avoidance test, memory retention (paw pressure withdrawal) in rats; format: in vivo, rat; settings: for minimal effective dose: sc, read-out: Active dose (minimum dose which reduces the stimulus to below 11 graduations)
Description: (A) The action on mnemic processes is first shown by the ability of the compounds to improve a type of memory retention in rats. The principle of the active avoidance test (see M. GREINDL and S. PREAT, Arch. Int. Pharmacodyn. Therap. 223,(1976),(1),168-171) developed in our laboratories and used for this purpose may be described as follows: the reaction of withdrawal of a rat's paw when subjected to an increasing and measured pressure is observed. The pressure at which the withdrawal reaction takes place is called the reaction threshold. This threshold is expressed by the number of graduations of the scale of the apparatus used (Analgesy meter UGO BASILE - Milano) and thus corresponds to the minimum pressure which brings about withdrawal when applied to the animal's paw. It is read directly from the scale of the apparatus used.
Inversely, animals treated with a substance having a positive effect on the mnemic processes (for example, piracetam) show a significant degree of retention: the stimulus at which the rats react by a reflex of avoidance is statistically lower than that of the control animals. A minimum of 20 rats are used per test (10 treated rats and 10 control rats) and the active dose is defined as the minimum dose which reduces the stimulus to below 11 graduations.
Subcutaneous administration of compounds of general formula (I), namely compounds A, G, H, I, J, K, L, N, O, P, Q, R, V, W, give, under these conditions, the effects indicated in Table I below.

[1] = system: papillary muscle isolated from the rabbit heart; experiment: cardiac activity on isolated papillary muscle of rabbit heart; settings: for activation at 100 µg/mL / activation at 10 µg/mL: Oryctolagus cuniculus, read-out: percentage increase of the tension measured
Description: This has been shown by the method employing the papillary muscle isolated from the rabbit heart, according to the method of H. G. Schoepke and F. E. Shiddeman, J. Pharmacol. Exptl. Therap. 133,(1961), 171.
The reactivity of various compounds of general formula (I) after each experiment is checked against theophylline. Table IV gives some of the results observed, expressed as a percentage increase of the tension measured.

mice = experiment: protection against aggressions of the hypoxic type (lethality induced by oxydipentonium chloride) in mice; format: in vivo; settings: 1 h, mouse, intraperitoneal, one hour before curarizer, read-out: Proportion of survivors, treated animals; for responders at 100 µM, 100 µmol/kg: 0.1 mM/kg (F 24, G 25.5, H 24, I 30, J 21, K 23, L 23 mg/kg), control 1/10, F 0/10; for responders at 320 µM, 320 µmol/kg: 0.32 mM/kg (A 64, I 95, J 68, Piracetam 45 mg/kg), control 1/10, Piracetam 0/10; for responders at 10 µM, 10 µmol/kg: 0.01 mM/kg (B 2.6, G 2.6, H 2.4 mg/kg), control B 1/10, G 1/10, H 2/10
Procedure: Protection against aggressions of the hypoxic type is shown by a reduction of the lethality induced by a curarizer, the duration of action of which is short, namely oxydipentonium chloride (Brevatonal). At the doses used, this curarizer brings about a respiratory depression which, in turn, brings about a hypoxi-hypercapnic syndrome. A compound capable of protecting the brain during this brief period of hypoxia ensures survival. The compounds are administered to groups of 10 mice one hour before the injection of the curarizer; in a parallel test, a control group of 10 mice are given physiological salt solution before the curarizer. This test has also been developed in our laboratories (see, for the principle of this test, S. LEVIS et al.; Arch. Int. Pharmacodyn. Therap, 93,(1953),1,46-54).
Intraperitoneal administration of compounds of general formula (I), namely, products A, B, F, G, H, I, J, K, L, gives the results shown in Table III: […]

toxicity, LD50 in rat = settings: in vivo
Description: The tested compounds have a remarkably low toxicity. Table V gives the toxicities, after intravenous administration, of some of the compounds of the present invention: […]

rat = experiment: reduction of the spinal fixation time in rats; format: in vivo; settings: intraperitoneal, spinal section after 35 minutes
Description: (B) The action on mnemic processes is also shown by the reduction of the spinal fixation time, a test which has been described in literature (see C. GIURGEA & F. MOURAVIEFF-LESUISSE, Arch. Int. Pharmacodyn. 191/2,(1971),279) as an elementary memory model and which provides pharmacological reactivity in good correlation with clinical physiopathology. In the rat, after unilateral section of the cerebellum, there is a postural asymmetry of the hind paws. This asymmetry may persist, even after spinal section, if the animal has passed a sufficient period of time in this position. This time, which is called the spinal fixation time, is 45 minutes under the experimental conditions applied here.
On the other hand, if spinal section is performed before the expiry of this period of time, for example 35 minutes after the onset of the asymmetry, the latter disappears.
No animal treated with placebos retains the asymmetry under these conditions.
Inversely, any product which allows the rats to retain the asymmetry (thus effecting spinal fixation) when the spinal section is performed after 35 minutes, is considered to be active.
Intraperitoneal administration of compound A gives rise to the effects described in Table II. By "number of animals" is to be understood the number of animals which responded positively to the test, in relation to the number of animals tested at the indicated dose: […]

SMILES | activity compared with piracetam in the active avoidance test (rats; rat, subcutaneous) | minimal effective dose (rats; Rattus norvegicus, 24 h) | responders at 100 µM, 100 µmol/kg (mice) | LD50 (toxicity, LD50 in rat; intravenous) | other results
NC(=O)CNC(=O)CN1CCCCCC1=O [Compound V, 2-(hexahydro-2-oxo-1H-azepine-1-acetamido)-acetamide] | superior to that of piracetam | – | – | – | minimal effective dose (rats; rat, subcutaneous, tested 24 hours later): 2.27 mg/kg and 10 µmol/kg
NC(=O)C(NC(=O)CN1CCCC1=O)c1ccccc1 (centres unmarked) [Compound R, 2-(2-oxo-1-pyrrolidineacetamido)-2-phenylacetamide] | superior to that of piracetam | 2.75 mg/kg and 10 µmol/kg | – | – | –
CCCCC1CCN(CC(=O)NCC(N)=O)C1=O (centres unmarked) [Compound X, 2-(3-n-butyl-2-oxo-1-pyrrolidineacetamido)-acetamide] | – | – | – | – | activation at 100 µg/mL [1]: 25%
NC(=O)CNC(=O)C1(N2CCCC2=O)CC1 [Compound L, 2-[1-(2-oxo-pyrrolidino)-cyclopropanecarboxamido]-acetamide] | superior to that of piracetam | 0.23 mg/kg and 1 µmol/kg | 80% | – | –
CN(CC(=O)Nc1ccccc1)C(=O)CN1CCCC1=O [Compound E, 2-(N-Methyl-2-oxo-1-pyrrolidineacetamido)-N-phenylacetamide] | – | – | – | – | activation at 100 µg/mL [1]: 22%
CCC(C(=O)NCC(N)=O)N1CCCC1=O (stereo not drawn) [Compound K, 2-(alpha-ethyl-2-oxo-1-pyrrolidineacetamido)-acetamide] | superior to that of piracetam | 4.54 mg/kg and 20 µmol/kg | 70% | > 2500 µmol/kg and > 568 mg/kg | activation at 100 µg/mL [1]: 44%
CC(C(=O)NCC(N)=O)N1CCCC1=O (stereo not drawn) [Compound J, 2-(alpha-methyl-2-oxo-1-pyrrolidineacetamido)-acetamide] | superior to that of piracetam | 0.21 mg/kg and 1 µmol/kg | 60% | > 2600 µmol/kg and > 554 mg/kg | responders at 320 µM, 320 µmol/kg (mice): 100%
CCCNC(=O)CNC(=O)C(CC)N1C(=O)CCC1(C)C (stereo not drawn) [Compound I, 2-(alpha-ethyl-5,5-dimethyl-2-oxo-1-pyrrolidineacetamido)-N-propylacetamide] | superior to that of piracetam | 5.94 mg/kg and 20 µmol/kg | 50% | – | responders at 320 µM, 320 µmol/kg (mice): 80%; LD50 (toxicity, LD50 in rat; ip, intraperitoneal): > 2500 µmol/kg and > 743 mg/kg
CC(C(=O)NCC(N)=O)N1C(=O)CCC1(C)C (stereo not drawn) [Compound H, 2-(alpha,5,5-trimethyl-2-oxo-1-pyrrolidineacetamido)-acetamide] | superior to that of piracetam | 0.0024 mg/kg and 0.01 µmol/kg | 100% | > 3100 µmol/kg and > 747 mg/kg | responders at 10 µM, 10 µmol/kg (mice): 60%; activation at 10 µg/mL [1]: 10%; action against anoxia ([1]; same test (isolated papillary muscle, rabbit heart)): protective action against anoxia
CCC(C(=O)NCC(N)=O)N1C(=O)CCC1(C)C (stereo not drawn) [Compound G, 2-(alpha-ethyl-5,5-dimethyl-2-oxo-1-pyrrolidineacetamido)-acetamide] | superior to that of piracetam | 0.51 mg/kg and 2 µmol/kg | 60% | > 2800 µmol/kg and > 714 mg/kg | responders at 10 µM, 10 µmol/kg (mice): 40%
CCCCC(C(=O)NCC(N)=O)N1CCCC1=O (stereo not drawn) [Compound W, 2-(alpha-n-butyl-2-oxo-1-pyrrolidineacetamido)-acetamide] | superior to that of piracetam | 2.55 mg/kg and 10 µmol/kg | – | – | –
Cn1c(=O)c2[nH]cnc2n(C)c1=O [Theophylline, reference compound] | – | – | – | – | activation at 100 µg/mL ([1]; 100 μg/ml): 38%
CN(C)C(=O)CN(C)C(=O)CN1CCCC1=O [Compound P, N,N-dimethyl-2-(N-methyl-2-oxo-1-pyrrolidineacetamido)-acetamide] | superior to that of piracetam | 2.41 mg/kg and 10 µmol/kg | – | – | –
CN(CC(N)=O)C(=O)CN1CCCC1=O [Compound N, 2-(N-methyl-2-oxo-1-pyrrolidineacetamido)-acetamide] | superior to that of piracetam | 2.13 mg/kg and 10 µmol/kg | – | – | –
NC(=O)CNC(=O)CN1CCCC1=O [A, 2-(2-Oxo-1-pyrrolidineacetamido)-acetamide] | superior to that of piracetam | 0.4 mg/kg and 2 µmol/kg | – | > 5000 µmol/kg and > 1000 mg/kg | responders at 320 µM, 320 µmol/kg (mice): 70%; Number of animals which responded positively / number tested (rat; 6.4 mg/kg (0.032 mM/kg)): 3/7; Number of animals which responded positively / number tested (rat; 20.0 mg/kg (0.1 mM/kg)): 4/5
CNC(=O)CN(C)C(=O)CN1CCCC1=O [Compound O, N-methyl-2-(N-methyl-2-oxo-1-pyrrolidineacetamido)-acetamide] | superior to that of piracetam | 2.27 mg/kg and 10 µmol/kg | – | – | –
CC(C)NC(=O)CNC(=O)CN1CCCC1=O [Compound F, N-isopropyl-2-(2-oxo-1-pyrrolidineacetamido)-acetamide] | – | – | 40% | > 3000 µmol/kg and > 723 mg/kg | –
CCCCNC(=O)CNC(=O)CN1CCCC1=O [Compound B, N-n-Butyl-2-(2-oxo-1-pyrrolidineacetamido)-acetamide] | – | – | – | > 4000 µmol/kg and > 1020 mg/kg | responders at 10 µM, 10 µmol/kg (mice): 60%; responders at 32 µM, 8.2 mg/kg (mice; ip, 0.032 mM/kg (B 8.2 mg/kg), control 1/10): 80%
CN(C)C(=O)CNC(=O)CN1CCCC1=O [Compound M, N,N-ddimethyl-2-(2-oxo-1-pyrrolidineacetamido)-acetamide] | – | – | – | – | activation at 10 µg/mL [1]: 10%
CC(NC(=O)CN1CCCC1=O)C(N)=O (centres unmarked) [Compound Q, 2-methyl-2-(2-oxo-1-pyrrolidineacetamido)-acetamide] | superior to that of piracetam | 2.13 mg/kg and 10 µmol/kg | – | – | –
